Experimental findings from patent US10583119B2, “Compounds, compositions and methods for making the same” (Signum Biosciences, Inc., priority 2008, dated 2020) are described below.

For one series, the system named is phosphorylated Tau. The experiment in a line: Phosphorylated tau in vivo at four weeks (pS396 Western blot of brain). The conditions noted are these: 0.1% in chow, phospho-Serine 396. Also noted: species or system mice. On the procedure:
Swiss Webster mice (9-12 weeks old) were fed ad libitum, either standard rodent chow (Control), or rodent chow formulated with 0.1 g Compound I-63 per 100 g chow (0.1% Compound I-63) or 0.1 g Compound I-62 per 100 g chow (0.1% Compound I-62); water was changed weekly. Mice were housed at 23° C., on a 12 hour light and dark cycle, with 6 mice per cage. At 4 weeks, six mice from the Control, 0.1% Compound I-63 and 0.1% Compound I-62 groups were sacrificed by cervical dislocation, brains removed, snap-frozen in liquid nitrogen, and stored at −80° C. Brains were homogenized in 350 pi of buffer containing 20 mM MOPS-Na, pH 7.2, 1 mM EDTA/DTT, 0.5 mg/L of aprotinin, leupeptin and pepstatin, 100 nM okadaic acid, and clarified by centrifugation (14000 rpm, 10 min, 4° C.). Supernatant protein concentrations were measured by the Bradford method, 4 volumes of the supernatant and 1 volume of 5×SDS sample buffer were mixed and boiled for 2 minutes. Boiled homogenate ([…]) were loaded on 12% polyacrylamide gels, and transferred to nitrocellulose membranes. […] Protein bands were detected with the ECL Plus reagent (GE Healthcare) and blots scanned on a Molecular Dynamics Storm Imager. […]

The target in series [1] is T1, protein phosphatase 2A specific methyltransferase (MTase) (Homo sapiens, UniProt Q9UIC8).
T1 construct: His; made in house
T1 sequence (Q9UIC8 whole entry): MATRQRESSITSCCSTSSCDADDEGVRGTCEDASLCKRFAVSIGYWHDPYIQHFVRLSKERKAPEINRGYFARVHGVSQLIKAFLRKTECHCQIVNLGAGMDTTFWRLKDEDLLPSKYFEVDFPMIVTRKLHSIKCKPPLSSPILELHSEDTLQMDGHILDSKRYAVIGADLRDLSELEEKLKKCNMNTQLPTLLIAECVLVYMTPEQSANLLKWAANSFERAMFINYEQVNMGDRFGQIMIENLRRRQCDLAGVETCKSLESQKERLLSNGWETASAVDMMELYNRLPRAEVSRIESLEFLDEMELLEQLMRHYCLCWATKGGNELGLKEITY
The experiment in a line: PP2A methylation in 96-well plate format (methyltransferase activity). The conditions noted are these: purified PP2A, MTase and [3H]-SAM; read-out: MT (IC50). In kind it is biochemical. On the procedure:
Purified PP2A, MTase and [^3H]-SAM, were incubated in reaction buffer at 37° C. At the end of the reaction, mixture was added onto the membranes of 96-well filter plate (Multiscreen™, Millipore). The membranes were then pre-wetted with 70% ethanol (50 μL/well) and then subsequently washed with water (2×200 μL/well). The reaction in each well was terminated and the proteins (5 μL-20 μL) were precipitated by adding 25% ice-cold TCA. The plate was kept on ice for 30 minutes to ensure completion of protein precipitation. Excess of the free SAM was then removed by washing with 5% cold TCA ([…]) and 70% cold ethanol (2×100 μL/well). Membranes were air-dried, radioactivity in each well was counted by TopCount^NXT scintillation counter (Packard) with 25 μL/well of Microsinct™ 20 (PerkinElmer).

Series [2] addresses T2, PP2A (Homo sapiens, UniProt P67775).
T2 construct: made in house
The experiment in a line: Phosphatase activity of PP2A using pNPP as substrate. It is filed as biochemical. The settings on record: un-methylated PP2A, non-protein substrate pNPP, absence of ME and MT. The method, then: PP2A (10-200 nM) and pNPP (5-10 mM, Sigma) were mixed into 96-well plate (Fisher Scientific Inc.) in 50 μL of the buffer required. Reactions were performed at room temperature, and fully stopped by adding equal volume of 0.1 M EDTA. Production of p-nitrophenol […] was quantified by absorbance of reaction mixtures at 405 nm using the VMax® microplate reader (Molecular Devices).

Series [3] addresses T2, PP2A. The experiment in a line: Phosphatase activity of PP2A using phosphorylase a as substrate. It is filed as biochemical. The settings on record: un-methylated PP2A, protein substrate phosphorylase a, absence of ME and MT. On the procedure: After the reaction, proteins were precipitated by 50% (NH4)2SO4 (final concentration) twice, and collected by centrifugation. The pellet was re-dissolved and dialyzed in a buffer containing 50 mM Tris-HCl (pH6.9) and ImM DTT for 2×2 L at 4° C. overnight. Phosphorylase a (phospho-phosphorylase b) crystallized during the dialysis. The dialysate was centrifuged 14,000 r.p.m at 4° C. for 30 minutes, the supernatant was removed and purified ^32P-labelled phosphorylase a was re-dissolved in +50% glycerol, and stored at −20° C.
To measure PP2A's phosphatase activity, PP2A (5-20 nM) was incubated with phosphorylase a (5-10 μM) at 37° C. 10% TCA (final concentration) and was added to the reaction to precipitate proteins. Supernatant that contains free ^32P-phosphate group was added into scintillation counting solution (Ecoscint, National Diagnostics), and counted by scintillation counter (LS 6000SE, Beckman).

The target of series [4] is T3, protein phosphatase specific protein methylesterase (MEase) (Homo sapiens, UniProt Q9Y570).
T3 construct: made in house
T3 sequence (Q9Y570 1-386): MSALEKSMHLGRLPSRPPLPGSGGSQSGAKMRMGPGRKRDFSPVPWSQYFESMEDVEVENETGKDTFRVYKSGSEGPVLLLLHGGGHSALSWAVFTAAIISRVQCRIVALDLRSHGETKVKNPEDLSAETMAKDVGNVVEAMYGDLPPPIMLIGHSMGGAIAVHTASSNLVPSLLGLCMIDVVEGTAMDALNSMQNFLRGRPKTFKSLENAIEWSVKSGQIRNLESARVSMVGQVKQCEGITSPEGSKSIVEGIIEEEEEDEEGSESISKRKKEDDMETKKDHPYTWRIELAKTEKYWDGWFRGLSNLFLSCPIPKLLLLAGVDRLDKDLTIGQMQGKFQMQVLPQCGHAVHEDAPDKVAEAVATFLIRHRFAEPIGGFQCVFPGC
The experiment in a line: PP2A demethylation with [3H]-SAM and purified proteins (methylesterase activity). The settings on record: purified methylated PP2A and MEase; read-out: ME (IC50). It is filed as biochemical. The method, then: PP2A (methylated and unmethylated) were eluted with 1.6 mL of Buffer A containing 350 mM NaCl. Fractions (0.2 mL each) were collected and the radioactivity in each fraction was measured using the scintillation counter (LS 6000SE, Beckman). Fractions with highest radioactivity were containing purified methylated PP2A were pooled with a total volume of 0.6 mL-0.8 mL. Purified methylated PP2A (50 nM-100 nM) was incubated with MEase (5 nM-20 nM) in 20 μl-50 μl reaction at room temperature for 30 minutes. The reaction was terminated by adding TCA (2 μl-6 μl) to a final concentration of 10%. Released [^3H]-methanol in supernatants was counted with scintillation counter (LS 6000SE, Beckman).

For series [5], the system named is MPTP Mouse Model of Parkinson's Disease. The experiment in a line: MPTP-induced neurotoxicity in MPTP mouse model of Parkinson's disease (striatal tyrosine hydroxylase ELISA). In kind it is in vivo, C57BL/6J mice. The settings on record: mice on control diets, relative to saline-injected mice. The source says: MPTP (1-methyl-4-phenyl-1,2,3,6-tetrahydropyridine) is routinely used as a chemical agent that induces Parkinson's disease-like neurodegeneration in cellular and animal models. Both Parkinson's Disease and MPTP-induced neurotoxicity are associated with a number of different biomarkers including reduction of tyrosine hydroxylase levels and activity. Tyrosine hydroxylase is a key enzyme in the dopamine biosynthesis pathway as it is involved in the conversion of tyrosine to […]. Tyrosine hydroxylase activity is regulated by its phosphorylation status and PP2A is known to be involved in this regulation.
C57BL/6J mice, aged 2-3 months were fed ad libitum, either standard rodent chow (Control), or rodent chow formulated with 0.1 g Compound I-63, or 0.001 g Compound I-63 per 100 g chow (0.1% and 0.001% Compound I-63, respectively); water was changed weekly. Mice were housed at 23° C., on a 12 hour light and dark cycle, with 6 mice per cage. After 2 weeks, 8-12 mice each from the Control, 0.1% Compound 1-63 and 0.001% Compound I-63 groups were injected with either saline, or 10 mg/kg MPTP i.e., four times, every 2 hours, on the same day. Mice were then maintained on their respective feeds for another week, at which point they were sacrificed by cervical dislocation and brains dissected for biochemical analyses.
Striatal tyrosine hydroxylase (TH) content was measured by ELISA as follows. Ninety-six well microliter plates (Thermo Labsystems) were incubated overnight at 4° C. with monoclonal anti-TH antibody (1:500; Calbiochem) in 8 mM sodium phosphate, 2 mM potassium phosphate, and 0.14 M sodium chloride, pH 7.4 (PBS). Wells were washed four times with PBS and then blocked for 1 hour using 5% (w/v) Carnation (Nestle) nonfat dry milk in PBS. Striatal tissue samples were homogenized by sonication in PBS-0.5% Triton X-100 (PBST) with 0.25% (w/v) SDS. […] The reaction product was measured fluorometrically within the linear range of detection (excitation:emission ratio of 530:580 nm). […] Data were expressed as percent TH levels in MPTP-treated mice relative to saline-injected mice. […]
On the technique in general: In an ELISA, binding on a coated surface is turned into a signal by an enzyme label.

Another series relates to Ob/Ob Mice. The experiment in a line: Non-fasted glucose levels in ob/ob mice. It is filed as in vivo. The conditions noted are these: homozygous obese mice, compound in diet for 14 days. The source says:
They are also hypometabolic and hypothermic. The obesity is characterized by an increase in both the number and the size of adipocytes. Although hyperphagia contributes to the obesity, homozygotes gain excess weight and deposit excess fat even when restricted to a diet sufficient for normal weight maintenance in lean mice. Mice heterozygous for the Lep^ob mutation appear like wild-type and are lean.
Forty-eight (48) B6.V-Lep^ob/J mice (00632, The Jackson Laboratory, JAX^6 mice), homozygous for the Lep^ob mutation and thirty six (36) controls B6.V-Lep^ob/J-lean, heterozygous for the Lep^ob mutation were used to study the effect of SIG1012 on non-fasted glucose levels. The mice were ear notched for identification and housed in individually and positively ventilated polycarbonate cages with HEPA filtered air at a density of 3 mice per cage. Bed-o-cob corn cob bedding was used and cages were changed every two weeks. The animal room was lighted entirely with artificial fluorescent lighting, with a controlled 12 h light/dark cycle (7 am to 7 pm light). The normal temperature and relative humidity ranges in the animal rooms were 22±4° C. and 50±15%, respectively. The animal rooms were set to have 15 air exchanges per hour. Filtered tap water, acidified to a pH of 2.8 to 3.2, and LabDiet AIN-76A was provided ad libitum.
Following acclimation, mice were assigned to groups A through G according to their body weight and genotype:
A Lean heterozygotes—B6.V-Lep^ob/J-lean Mice Fed Control Diet (AIN-76A);
B Lean heterozygotes—B6.V-Lep^ob/J-lean Mice Fed “Low” Compound I-63 (AIN-76A with 0.001% Compound I-63);
C Lean heterozygotes—B6.V-Lep^ob/J-lean Mice Fed “Medium” Compound I-63 (AIN-76A with 0.1% Compound I-63);
D Obese homozygotes—B6. V-Lep^ob/J Mice Fed Control Diet (AIN-76A);
E Obese homozygotes—B6N-Lep^ob/J Mice Fed “Low” Compound I-63 (AIN-76A with 0.001% Compound I-63); […]
Mice from Groups A through G were maintained on the respective diet for 14 days and blood glucose levels were measured weekly.

T2 sequence (P67775 whole entry): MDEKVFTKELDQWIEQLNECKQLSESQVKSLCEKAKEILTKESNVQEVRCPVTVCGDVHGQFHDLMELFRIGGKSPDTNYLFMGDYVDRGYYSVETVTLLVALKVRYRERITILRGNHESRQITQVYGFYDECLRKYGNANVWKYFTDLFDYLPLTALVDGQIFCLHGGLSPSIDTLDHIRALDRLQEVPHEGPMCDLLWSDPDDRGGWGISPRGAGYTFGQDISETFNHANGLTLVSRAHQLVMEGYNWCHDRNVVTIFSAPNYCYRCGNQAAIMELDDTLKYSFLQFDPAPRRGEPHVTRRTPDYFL
T2 sequence (P30153 whole entry partner): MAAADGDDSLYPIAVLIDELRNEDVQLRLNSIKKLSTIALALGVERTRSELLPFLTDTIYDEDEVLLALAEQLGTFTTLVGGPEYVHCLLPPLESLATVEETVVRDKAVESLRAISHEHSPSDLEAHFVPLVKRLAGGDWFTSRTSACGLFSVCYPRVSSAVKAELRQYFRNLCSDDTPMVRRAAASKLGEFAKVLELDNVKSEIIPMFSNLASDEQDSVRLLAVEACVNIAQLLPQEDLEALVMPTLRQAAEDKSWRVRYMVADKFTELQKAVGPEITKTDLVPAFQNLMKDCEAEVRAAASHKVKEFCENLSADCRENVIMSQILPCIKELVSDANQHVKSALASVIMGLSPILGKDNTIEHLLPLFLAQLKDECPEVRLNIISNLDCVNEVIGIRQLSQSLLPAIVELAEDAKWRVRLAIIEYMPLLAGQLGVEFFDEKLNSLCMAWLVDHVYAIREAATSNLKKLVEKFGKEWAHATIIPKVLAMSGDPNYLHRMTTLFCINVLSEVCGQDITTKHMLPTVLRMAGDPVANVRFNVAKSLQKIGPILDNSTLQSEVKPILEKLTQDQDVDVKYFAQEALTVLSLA

Usually IC50 stands for the point on the concentration scale where inhibition reaches its midpoint. With `CCCCCCCCCCCCCCCCCCCCCC(=O)NCCc1c[nH]c2ccc(O)cc12` [Compound I-62, N-(2-(5-hydroxy-1H-indol-3-yl)ethyl)docosanamide], in the series with phosphorylated Tau, the “lowering of phosphorylated tau levels in the brain compared to control” value came to 40%. Besides, the IC50 was 10 to 100 µM in series [1], 10 to 100 µM against PP2A [2], above 100 µM against PP2A [3] and 10 to 100 µM in series [4].

Turning to `CN1CC=C(c2ccccc2)CC1` [MPTP, 1-methyl-4-phenyl-1,2,3,6-tetrahydropyridine, reference compound], the “reduction of tyrosine hydroxylase levels” value in series [5] is given as 60%.

For `CN(CCOc1ccc(CC2SC(=O)NC2=O)cc1)c1ccccn1` (stereo not shown) [Rosiglitizone, reference compound], the “reduction in non-fasted blood glucose levels” value in the series with Ob/Ob Mice is 66%.
